Measurements from patent US8802597B2, “Herbicidal pyrimidines” (E I du Pont de Nemours and Company, priority 2003, dated 2014).

Experiments:
Assay type in all cases: in vivo
[1] = system: yellow nutsedge (Cyperus esculentus); experiment: Test C pre/postemergence; details: for Plant response rating (scale of 0 to 100), Nutsedge, Yellow / Nutsedge, Yellow plant response rating: Postemergence; for Nutsedge, Yellow plant response rating: 125 g ai/ha, scale 0 to 100 (0 no effect, 100 complete control); for Plant response rating, Nutsedge, Yellow: Preemergence, scale 0 to 100, 0 no effect, 100 complete control
How it was run: (§1)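 Greenhouse pot test: seeds treated preemergence, or plants at 2–18 cm (1- to 4-leaf stage) treated postemergence, with compound in non-phytotoxic solvent plus surfactant. Visual rating versus untreated controls after 12–14 days, scale 0 (no effect) to 100 (complete control); dash means not tested.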

[2] = system: Surinam grass (Brachiaria decumbens); experiment: Test C pre/postemergence; details: for Plant response rating (scale of 0 to 100), Surinam Grass / Surinam Grass plant response rating: Postemergence; for Surinam Grass plant response rating: 125 g ai/ha, scale 0 to 100 (0 no effect, 100 complete control); for Plant response rating, Surinam Grass: Preemergence, scale 0 to 100, 0 no effect, 100 complete control
How it was run: as §1

[3] = system: crabgrass (Digitaria sanguinalis); experiment: Test C pre/postemergence; details: for Plant response rating (scale of 0 to 100), Crabgrass / Crabgrass plant response rating: Postemergence; for Crabgrass plant response rating: scale 0 to 100 (0 no effect, 100 complete control); for Plant response rating, Crabgrass: Preemergence
How it was run: as §1

[4] = system: giant foxtail (Setaria faberii); experiment: Test C pre/postemergence; details: for Plant response rating (scale of 0 to 100), Foxtail, Giant / Foxtail, Giant plant response rating: Postemergence; for Foxtail, Giant plant response rating: scale 0 to 100 (0 no effect, 100 complete control); for Plant response rating, Foxtail, Giant: Preemergence
How it was run: as §1

[5] = system: velvetleaf (Abutilon theophrasti); experiment: Test A pre/postemergence
How it was run: (§2)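 Seeds sown in loam–sand blend received a preemergence directed soil spray of test chemical in non-phytotoxic solvent with surfactant; same-formulation postemergence spray given concurrently to plants 2–10 cm tall at 1- to 2-leaf stage. Greenhouse ~ten days, then visual injury rating versus untreated controls, 0 (no effect) to 100 (complete control).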

[6] = system: crabgrass (Digitaria sanguinalis); experiment: Test A pre/postemergence
How it was run: as §2

[7] = system: redroot pigweed (Amaranthus retroflexus); experiment: Test A pre/postemergence
How it was run: as §2

[8] = system: morningglory (Ipomoea spp.); experiment: Test A pre/postemergence
How it was run: as §2

[9] = system: barnyardgrass (Echinochloa crus-galli); experiment: Test A pre/postemergence
How it was run: as §2

[10] = system: giant foxtail (Setaria faberi); experiment: Test A pre/postemergence
How it was run: as §2

[11] = system: chickweed (Stellaria media); experiment: Test C postemergence
How it was run: as §1

[12] = 16 g ai/ha, scale 0 to 100, 0 no effect, 100 complete control
[13] = 31 g ai/ha, scale 0 to 100, 0 no effect, 100 complete control
[14] = 62 g ai/ha, scale 0 to 100, 0 no effect, 100 complete control
[15] = Postemergence, 125 g ai/ha, 0 to 100 scale (0 no effect, 100 complete control)
[16] = Postemergence, 500 g ai/ha, 0 to 100 scale (0 no effect, 100 complete control)
[17] = Preemergence, 125 g ai/ha, 0 to 100 scale where 0 is no effect and 100 is complete control, approximately ten days
[18] = Preemergence, 500 g ai/ha, 0 to 100 scale where 0 is no effect and 100 is complete control, approximately ten days

Nc1nc(-c2ccc(Cl)cc2)nc(C(=O)[O-])c1Cl.[Na+] [Compound 117]
Plant response rating (scale of 0 to 100), Nutsedge, Yellow ([1]; 16 g ai/ha): 5
Plant response rating (scale of 0 to 100), Nutsedge, Yellow ([1]; 31 g ai/ha): 50
Plant response rating (scale of 0 to 100), Nutsedge, Yellow ([1]; 62 g ai/ha): 50
Nutsedge, Yellow plant response rating [1]: 60
Plant response rating, Nutsedge, Yellow ([1]; 16 g ai/ha): 0
Plant response rating, Nutsedge, Yellow ([1]; 31 g ai/ha): 0
Plant response rating, Nutsedge, Yellow ([1]; 62 g ai/ha): 50
Plant response rating (scale of 0 to 100), Surinam Grass ([2]; 16 g ai/ha): 45
Plant response rating (scale of 0 to 100), Surinam Grass ([2]; 31 g ai/ha): 50
Plant response rating (scale of 0 to 100), Surinam Grass ([2]; 62 g ai/ha): 80
Surinam Grass plant response rating [2]: 80
Plant response rating, Surinam Grass ([2]; 16 g ai/ha): 40
Plant response rating, Surinam Grass ([2]; 31 g ai/ha): 40
Plant response rating, Surinam Grass ([2]; 62 g ai/ha): 50
Plant response rating (scale of 0 to 100), Crabgrass ([3]; 16 g ai/ha): 85
Plant response rating (scale of 0 to 100), Crabgrass ([3]; 31 g ai/ha): 90
Plant response rating (scale of 0 to 100), Crabgrass ([3]; 62 g ai/ha): 90
Crabgrass plant response rating ([3]; 125 g ai/ha): 90
Plant response rating, Crabgrass [3, 12]: 0
Plant response rating, Crabgrass [3, 13]: 0
Plant response rating, Crabgrass [3, 14]: 0
Plant response rating, Crabgrass ([3]; 125 g ai/ha, scale 0 to 100): 60
Plant response rating (scale of 0 to 100), Foxtail, Giant ([4]; 16 g ai/ha): 50
Plant response rating (scale of 0 to 100), Foxtail, Giant ([4]; 31 g ai/ha): 55
Plant response rating (scale of 0 to 100), Foxtail, Giant ([4]; 62 g ai/ha): 70
Foxtail, Giant plant response rating ([4]; 125 g ai/ha): 80
Plant response rating, Foxtail, Giant [4, 12]: 0
Plant response rating, Foxtail, Giant [4, 13]: 0
Plant response rating, Foxtail, Giant [4, 14]: 5
Plant response rating, Foxtail, Giant ([4]; 125 g ai/ha, scale 0 to 100): 50
Plant response rating, Velvetleaf [5, 15]: 100
Plant response rating, Velvetleaf [5, 16]: 100
Plant response rating, Velvetleaf [5, 17]: 55
Plant response rating, Velvetleaf [5, 18]: 100
Plant response rating, Crabgrass [6, 15]: 75
Plant response rating, Crabgrass [6, 16]: 90
Plant response rating, Crabgrass [6, 17]: 45
Plant response rating, Crabgrass [6, 18]: 75
Plant response rating, Pigweed [7, 15]: 100
Plant response rating, Pigweed [7, 16]: 100
Plant response rating, Pigweed [7, 17]: 65
Plant response rating, Pigweed [7, 18]: 100
Plant response rating, Morningglory [8, 15]: 90
Plant response rating, Morningglory [8, 16]: 90
Plant response rating, Morningglory [8, 17]: 10
Plant response rating, Morningglory [8, 18]: 85
Plant response rating, Barnyardgrass [9, 15]: 85
Plant response rating, Barnyardgrass [9, 16]: 90
Plant response rating, Barnyardgrass [9, 17]: 25
Plant response rating, Barnyardgrass [9, 18]: 85
Plant response rating, Foxtail, Giant [10, 15]: 80
Plant response rating, Foxtail, Giant [10, 16]: 90
Plant response rating, Foxtail, Giant [10, 17]: 50
Plant response rating, Foxtail, Giant [10, 18]: 85
Plant response rating (scale of 0 to 100), Chickweed ([11]; 16 g ai/ha): 30
Plant response rating (scale of 0 to 100), Chickweed ([11]; 62 g ai/ha): 40

CCOC(=O)c1nc(-c2ccc(I)cc2)nc(N)c1Cl [Compound 133]
Plant response rating (scale of 0 to 100), Nutsedge, Yellow ([1]; 16 g ai/ha): 60
Plant response rating (scale of 0 to 100), Nutsedge, Yellow ([1]; 31 g ai/ha): 75
Plant response rating (scale of 0 to 100), Nutsedge, Yellow ([1]; 62 g ai/ha): 75
Nutsedge, Yellow plant response rating [1]: 80
Plant response rating (scale of 0 to 100), Surinam Grass ([2]; 16 g ai/ha): 35
Plant response rating (scale of 0 to 100), Surinam Grass ([2]; 31 g ai/ha): 45
Plant response rating (scale of 0 to 100), Surinam Grass ([2]; 62 g ai/ha): 55
Surinam Grass plant response rating [2]: 70
Plant response rating (scale of 0 to 100), Crabgrass ([3]; 16 g ai/ha): 50
Plant response rating (scale of 0 to 100), Crabgrass ([3]; 31 g ai/ha): 75
Plant response rating (scale of 0 to 100), Crabgrass ([3]; 62 g ai/ha): 75
Crabgrass plant response rating ([3]; 125 g ai/ha): 80
Plant response rating (scale of 0 to 100), Foxtail, Giant ([4]; 16 g ai/ha): 15
Plant response rating (scale of 0 to 100), Foxtail, Giant ([4]; 31 g ai/ha): 60
Plant response rating (scale of 0 to 100), Foxtail, Giant ([4]; 62 g ai/ha): 70
Foxtail, Giant plant response rating ([4]; 125 g ai/ha): 75
Plant response rating, Velvetleaf [5, 15]: 80
Plant response rating, Velvetleaf [5, 16]: 85
Plant response rating, Velvetleaf [5, 17]: 10
Plant response rating, Velvetleaf [5, 18]: 30
Plant response rating, Crabgrass [6, 15]: 30
Plant response rating, Crabgrass [6, 16]: 55
Plant response rating, Crabgrass [6, 17]: 0
Plant response rating, Crabgrass [6, 18]: 45
Plant response rating, Pigweed [7, 15]: 80
Plant response rating, Pigweed [7, 16]: 90
Plant response rating, Pigweed [7, 17]: 10
Plant response rating, Pigweed [7, 18]: 65
Plant response rating, Morningglory [8, 15]: 70
Plant response rating, Morningglory [8, 16]: 85
Plant response rating, Morningglory [8, 17]: 0
Plant response rating, Morningglory [8, 18]: 35
Plant response rating, Barnyardgrass [9, 15]: 10
Plant response rating, Barnyardgrass [9, 16]: 40
Plant response rating, Barnyardgrass [9, 17]: 0
Plant response rating, Barnyardgrass [9, 18]: 15
Plant response rating, Foxtail, Giant [10, 15]: 15
Plant response rating, Foxtail, Giant [10, 16]: 60
Plant response rating, Foxtail, Giant [10, 17]: 0
Plant response rating, Foxtail, Giant [10, 18]: 30
Plant response rating (scale of 0 to 100), Chickweed ([11]; 16 g ai/ha): 0
Plant response rating (scale of 0 to 100), Chickweed ([11]; 31 g ai/ha): 10
Plant response rating (scale of 0 to 100), Chickweed ([11]; 62 g ai/ha): 20
Chickweed plant response rating ([11]; 125 g ai/ha, scale 0 to 100 (0 no effect, 100 complete control)): 45
